Patent publication US9254269B2, “Method of managing hypercortisolemia, headache disorders, neuropathic pain and related disorders” (Indus Biotech Private Limited, priority 2011, dated 2016)

Assays:
5-HT1A receptor = target: T1, 5-HT1A receptor (Mus musculus, UniProt Q64264); assay: Forced swim test, alone and after 5-HT1A receptor antagonist NAN-190; type: in vivo, Swiss albino mice; conditions: NAN-190 1 mg/kg p.o. alone
T1 construct: Male Swiss albino mice weighing 25-30 g were treated with antagonist of 5-HT1A receptor (NAN-190); from tissue; host or cells: whole living animal (male Swiss albino mice)
T1 sequence (Q64264 1-421): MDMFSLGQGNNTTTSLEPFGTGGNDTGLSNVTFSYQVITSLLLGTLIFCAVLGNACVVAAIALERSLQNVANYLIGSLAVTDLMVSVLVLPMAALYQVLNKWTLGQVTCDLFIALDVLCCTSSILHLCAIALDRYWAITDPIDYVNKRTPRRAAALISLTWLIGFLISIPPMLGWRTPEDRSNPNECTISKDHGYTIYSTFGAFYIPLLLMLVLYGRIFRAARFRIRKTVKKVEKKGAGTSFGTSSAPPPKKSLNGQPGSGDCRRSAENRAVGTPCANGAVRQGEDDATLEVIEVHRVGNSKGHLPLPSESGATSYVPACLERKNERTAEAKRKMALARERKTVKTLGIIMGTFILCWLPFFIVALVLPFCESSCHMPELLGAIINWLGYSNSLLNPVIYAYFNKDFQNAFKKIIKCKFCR
Experimental: The activity of the test composition was evaluated by first blocking the 5-HT1A receptor with an antagonist followed by treatment with the test composition. The activity was measured in terms of immobility time of the test animals subjected to forced swim test.
Procedure: Male Swiss albino mice weighing 25-30 g were treated with antagonist of 5-HT1A receptor (NAN-190) at 1 mg/kg (p.o.) followed by administration of test composition at either 10 mg/kg (p.o.) or 30 mg/kg (p.o.). One hour after treatment, the animals were subjected to forced swim test and the immobility time was measured. A cut-off time of 360 sec was used.

[1] = system: Nitroglycerine induced hyperalgesia in rats; assay: Tail flick response latency in nitroglycerine induced hyperalgesia, oral treatment; test composition 41% asiaticoside and 36% madecassoside; type: in vivo, Wistar rats; conditions: 20 mg/kg p.o.

Row | Compound | Immobility Time (5-HT1A receptor) | % Reduction in Immobility Time (5-HT1A receptor; vs Normal Control) | Response latency in tail flick ([1]; 0 min after treatment, 20 seconds cut off) | Response latency in tail flick ([1]; 30 min after treatment) | Response latency in tail flick ([1]; 60 min after treatment) | Response latency in tail flick ([1]; 90 min after treatment) | Response latency in tail flick ([1]; 120 min after treatment) | Response latency in tail flick ([1]; 180 min after treatment) | Response latency in tail flick ([1]; 240 min after treatment)
1 | COc1ccccc1N1CCN(CCCCN2C(=O)c3ccccc3C2=O)CC1 [NAN-190] | 232.0 ± 1.63 s | −8.26% |  |  |  |  |  |  | 
2 | CC(C)=CCN1CCC2(C)c3cc(O)ccc3CC1C2C (stereo not drawn) [Pentazocine] |  |  | 8.42 ± 0.22 | 15.27 ± 0.26 | 15.23 ± 0.17 | 15.78 ± 0.24 | 15.50 ± 0.48 | 15.18 ± 0.45 | 15.03 ± 0.28
